Experimental findings from PMC10306101, “Substrate-derived Sortase A inhibitors: targeting an essential virulence factor of Gram-positive pathogenic bacteria” (Chemical Science, 2023) are described below.

For assay [1], the system named is S. aureus. The assay can be described thus: Sytox Green fluorescence measurement of S. aureus incubated with inhibitors. The class given is cell-based. To be noted: for Fluorescence value (Sytox Green, 533 nm): 24 hours, control 294.0 ± 0.1. How it is done: To achieve this, S. aureus was again incubated with our peptidomimetic inhibitors, specifically, 18, 22, 23 and 24 at 8, 32 and 128 μg mL^−1 and harvested after 24 hours to ensure the bacteria reach their growth plateau. Peptide 24 was included to confirm the influence of the N-terminal benzyl group. The bacterial cells were permeabilized and their […] were labelled using Sytox Green and subsequently their fluorescence was measured quantitatively. […] Bacteria incubated with 32 and 128 μg mL^−1 of 18 as well as 128 μg mL^−1 of 22 were also imaged using fluorescence microscopy (Fig. 4). In the control sample, planktonic bacteria could be abundantly observed (Fig. 4a). While it was hard to distinguish the microscopy images for the less strong inhibition (Fig. 4b and c), it became evident from the sample with 128 μg mL^−1 of 18 that visually bacterial growth was affected as well (Fig. 4d) where the bacteria were much more sparsely distributed in the sample. […]
For the fluorescence experiments S. aureus was cultured overnight in sterile TSB medium and diluted 1:250 by adding 2.5 μL bacterial culture into TSB medium in sterilized 1.5 mL Eppendorf tubes to a final volume of 500 μL. Subsequently, peptides were added to the bacteria from filter sterilized stocks in MQ-H2O to give 8, 32 and 128 μg/ml final concentrations. Then, bacteria were incubated at 37 °C for 24 hours and centrifuged for 3 minutes at 3000 rpm in an Eppendorf Microstar 30r centrifuge. The supernatant was discarded and the cells were washed once with sterilized PBS and centrifuged. 100 μL PBS-T (PBS + 0.1% Triton-X) was added to the cells for 15 minutes to induce cell membrane permeabilization. After removal of the PBS-T by centrifugation, 100 μL of 5 μM Sytox Green (Invitrogen, Waltham, MA, USA) solution in PBS […]
was added and the cells were stained for 30 minutes, centrifuged and washed with PBS twice.
For the fluorescence measurements, the cells were resuspended with 100 μL of PBS and added in a sterilized, white plastic polystyrene 96-well plate and their fluorescence was measured by exciting the samples at 488nm and measuring the fluorescence intensity at 533 nm in a microplate reader. All individual samples were carried out in duplicate. For the fluorescence microscopy experiments, the cells were treated in the same, but resuspended in 10 μL of PBS and 5 μL of bacterial suspension was spotted on a glass target plate dipped in a melted solution of 1.2% agarose in Tris-HCl (50 mM) to ensure fixation of the sample. The sledes were covered by a cover glass and observed on an Axio Imager Z2m fluorescence microscope (Zeiss, Jena, Germany) at 100 times magnification at the emission wavelength of […]
Biofilm inhibition assays
For the biofilm inhibition experiments the S. aureus strain CCUG10778 was cultured overnight in sterile BHI broth. A sterilized, clear polystyrene 96-well plate was prepared by coating with plasma by addition of 20% of final assay volume rabbit plasma to the wells and incubating overnight at 4 °C. Then, the cultured strain was diluted 1:100 by adding 2 μL into BHI medium on the plasma coated plate to a total volume of 200 μL. Subsequently, peptides were added to the bacteria from filter sterilized stocks in MQ-H2O to give 8, 32 and 128 μg/ml final concentrations and incubated for 12 hours at 37 °C without shaking. The supernatant was removed and the wells were rinsed with PBS and 100 μL of 1% crystal violet solution (diluted in PBS) was added and the biofilms were stained for 10 minutes. The wells were washed with PBS twice and 200 μL of a 95% ethanol solution in water was added to solubilize the cells for 30 minutes. 100 μL was transferred into a new 96-well plate and the absorbance measured at 595 nm using a Varioskan Lux microplate reader. All individual samples were carried out in […]
All computational studies and analysis steps were performed employing the YASARA molecular modeling program.6, 7
Molecular graphics were created with YASARA (www.yasara.org) and POVRay […]

The subject of assay [2] is S. aureus strain CCUG10778. The assay can be described thus: Growth profiling of S. aureus (absorbance at 600 nm). The class given is cell-based. On the procedure:
To assess whether our most promising compounds have a possibility of being potential antivirulent compounds, they were tested with pathogenic S. aureus bacteria to assess the peptidomimetic inhibitors for their ability to inhibit bacterial growth. Firstly, our compounds were incubated with S. aureus bacteria in a 96-well plate in Tryptic Soy Broth (TSB) medium, while we also included the reference compound used in the single-point in vitro inhibition studies. So far, the covalent binding thiadiazol reference compound was not tested in this respect, but was one of the most promising compounds identified in an earlier screening campaign.[42] The inhibitors were added at various concentrations, ranging from 2 μg mL^−1 to 128 μg mL^−1, and the absorbance at 600 nm was measured as an indication of their optical density (OD600) and by that the bacteria's ability to propagate in liquid media. In the negative control experiments, the bacteria consistently reached an OD600 of 0.6 between 6 and 12 hours (Fig. 3). […]
For the growth profiling experiments the S. aureus strain CCUG10778 was cultured overnight in sterile TSB medium and diluted 1:100 by adding 1 μL into TSB medium in a sterilized, clear polystyrene 96-well plate to a final assay volume of 100 μL. Subsequently, peptides were added to the bacteria from filter sterilized stocks in MQ-H2O to give 2, 8, 32 and 128 μg/ml final concentrations. Then, bacteria were incubated at 37 °C for 3, 6, 12, 24, 36 or 48 hours and their absorbance was measured at 600 nm using a Varioskan Lux microplate reader (Thermo Fisher Scientific, Waltham, MA, USA). All individual samples were carried out in triplicate. […]
Then, bacteria […]
were incubated at 37 °C for 24 hours and centrifuged for 3 minutes at 3000 rpm in an Eppendorf Microstar 30r centrifuge. The supernatant was discarded and the cells were washed once with sterilized PBS and centrifuged. 100 μL PBS-T (PBS + 0.1% Triton-X) was added to the cells for 15 minutes to induce cell membrane permeabilization. After removal of the PBS-T by centrifugation, 100 μL of 5 μM Sytox Green (Invitrogen, Waltham, MA, USA) solution in PBS

With H-FLPRDA-NH2 [Compound 22, FLPRDA], the “Fluorescence value (Sytox Green, 533 nm)” value in assay [1] (8 μg/ml) is recorded as 302.3 ± 0.5; in assay [1] (32 μg/ml), 297.4 ± 0.3; in assay [1] (128 μg/ml), 275.2 ± 1.1. Further, the “decrease in fluorescence signal (in words)” value in assay [1] (128 μg mL^−1, 24 hours) was “minor effect”. Moreover, in assay [2] (128 μg mL^−1, 48 hours, OD600), the “decrease in absorbance compared to the control” value amounted to 22%. For the same substance, in assay [2] (2 to 128 μg mL^−1, TSB medium, up to 48 hours), the “effect on bacterial growth (absorbance plateau, OD600)” value is reported as “clear effect on the plateau of the absorbance”.
